Experimental data: ChEMBL document CHEMBL1201862, “PubChem BioAssay data set” (2004)
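All cell lines were grown in 96-well plates and treated with compound for 48 hours. The concentration for 50% growth inhibition is given as GI50.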 Calls of active or inactive are those of the source. Cut-off read from the data, not from the text of the source: active = GI50 up to about 1.1 µM and inactive = higher.

Columns and labels:
Assay in all cases: NCI anticancer screen, dose series, 48 h
A549 = test system: A549
M19-MEL = test system: M19-MEL
K562 = test system: K562
NCI-H226 = test system: NCI-H226
EKVX = test system: EKVX
OVCAR-5 = test system: OVCAR-5
HCT-15 = test system: HCT-15
IGROV-1 = test system: IGROV-1
SNB-19 = test system: SNB-19
Malme-3M = test system: Malme-3M
NCI-H23 = test system: NCI-H23
CAKI-1 = test system: CAKI-1
NCI-H522 = test system: NCI-H522
SN12C = test system: SN12C
HCT-116 = test system: HCT-116
HOP-62 = test system: HOP-62
LOX IMVI = test system: LOX IMVI
Hs-578T = test system: Hs-578T
PC-3 = test system: PC-3
BT-549 = test system: BT-549

SMILES	GI50 (A549)	GI50 (M19-MEL)	GI50 (K562)	GI50 (NCI-H226)	GI50 (EKVX)	GI50 (OVCAR-5)	GI50 (HCT-15) [µM]	GI50 (IGROV-1)	GI50 (SNB-19)	GI50 (Malme-3M)	GI50 (NCI-H23)	GI50 (CAKI-1)	GI50 (NCI-H522)	GI50 (SN12C)	GI50 (HCT-116)	GI50 (HOP-62)	GI50 (LOX IMVI)	GI50 (Hs-578T)	GI50 (PC-3)	GI50 (BT-549)
O=C1C2=C(c3ccccc31)C(c1cccc(Cl)c1)NC(S)=N2 (stereo not given)	> 100 µM (inactive)	> 100 µM (inactive)	> 100 µM (inactive)	44.2 µM (inactive)	> 100 µM (inactive)	> 100 µM (inactive)	> 100	> 100 µM (inactive)	> 100 µM (inactive)	> 100 µM (inactive)	> 100 µM (inactive)	75.2 µM (inactive)	> 100 µM (inactive)	> 100 µM (inactive)	> 100 µM (inactive)	> 100 µM (inactive)	–	–	–	–
CC(C(=O)c1ccc(Cl)cc1)/C(=N/NC(=O)NN)C(=O)Nc1cccc(C(F)(F)F)c1 (stereo not given)	> 100 µM (inactive)	> 100 µM (inactive)	> 100 µM (inactive)	> 100 µM (inactive)	> 100 µM (inactive)	> 100 µM (inactive)	> 100	> 100 µM (inactive)	> 100 µM (inactive)	> 100 µM (inactive)	> 100 µM (inactive)	> 100 µM (inactive)	–	> 100 µM (inactive)	> 100 µM (inactive)	–	> 100 µM (inactive)	–	–	–
O=C(O)Cc1cc(=O)[nH]c2c1C(=O)CCC2	–	> 100 µM (inactive)	> 100 µM (inactive)	> 100 µM (inactive)	> 100 µM (inactive)	> 100 µM (inactive)	> 100	> 100 µM (inactive)	> 100 µM (inactive)	> 100 µM (inactive)	> 100 µM (inactive)	–	> 100 µM (inactive)	> 100 µM (inactive)	–	–	–	–	–	–
C[P+](C)(C)C	> 100 µM (inactive)	> 100 µM (inactive)	> 100 µM (inactive)	> 100 µM (inactive)	> 100 µM (inactive)	> 100 µM (inactive)	> 100	> 100 µM (inactive)	> 100 µM (inactive)	> 100 µM (inactive)	> 100 µM (inactive)	> 100 µM (inactive)	–	> 100 µM (inactive)	> 100 µM (inactive)	> 100 µM (inactive)	> 100 µM (inactive)	–	–	–
C[P+]1(Cc2ccccc2)CCCC1	> 100 µM (inactive)	> 100 µM (inactive)	> 100 µM (inactive)	> 100 µM (inactive)	> 100 µM (inactive)	> 100 µM (inactive)	> 100	> 100 µM (inactive)	> 100 µM (inactive)	62.8 µM (inactive)	> 100 µM (inactive)	–	> 100 µM (inactive)	> 100 µM (inactive)	> 100 µM (inactive)	> 100 µM (inactive)	> 100 µM (inactive)	–	–	–
CC1C(c2ccccc2O)c2cc3c(cc2OC1N1CCCC1)OCO3 (stereo not given)	31 µM (inactive)	–	20 µM (inactive)	27.9 µM (inactive)	41.9 µM (inactive)	32.2 µM (inactive)	19.8	39.3 µM (inactive)	49.4 µM (inactive)	25.3 µM (inactive)	39 µM (inactive)	34.7 µM (inactive)	23.2 µM (inactive)	19.4 µM (inactive)	19.5 µM (inactive)	21.4 µM (inactive)	18.4 µM (inactive)	18.2 µM (inactive)	28.1 µM (inactive)	32.3 µM (inactive)
O=C(C[N+]1(c2ccccc2)CCOCC1)c1ccccc1	> 100 µM (inactive)	–	40.9 µM (inactive)	> 100 µM (inactive)	96.6 µM (inactive)	> 100 µM (inactive)	> 100	> 100 µM (inactive)	> 100 µM (inactive)	> 100 µM (inactive)	> 100 µM (inactive)	> 100 µM (inactive)	45.7 µM (inactive)	> 100 µM (inactive)	> 100 µM (inactive)	> 100 µM (inactive)	> 100 µM (inactive)	> 100 µM (inactive)	> 100 µM (inactive)	> 100 µM (inactive)
Nc1nc(Sc2ccc([N+](=O)[O-])c3nonc23)c2nc[nH]c2n1	3.69 µM (inactive)	–	0.369 µM (active)	1.75 µM (inactive)	1.85 µM (inactive)	1.02 µM (active)	1.89	3.57 µM (inactive)	15.8 µM (inactive)	1.02 µM (active)	2.25 µM (inactive)	0.36 µM (active)	0.733 µM (active)	1.97 µM (inactive)	0.622 µM (active)	0.561 µM (active)	0.232 µM (active)	6.58 µM (inactive)	3.34 µM (inactive)	2.07 µM (inactive)
NC(=S)N/N=C(/CC(=O)c1ccc([N+](=O)[O-])cc1)C(=O)Nc1ncc([N+](=O)[O-])s1	> 100 µM (inactive)	> 100 µM (inactive)	–	> 100 µM (inactive)	> 100 µM (inactive)	> 100 µM (inactive)	–	> 100 µM (inactive)	> 100 µM (inactive)	> 100 µM (inactive)	> 100 µM (inactive)	–	–	> 100 µM (inactive)	> 100 µM (inactive)	> 100 µM (inactive)	61.7 µM (inactive)	–	–	–
